The values that follow come from patent publication US10206394B2, “Herbicidal compounds” (Syngenta Participations AG, priority 2014, dated 2019).

Each structure is given as a SMILES string. Like-named read-outs stand apart in the source and are kept apart here.

Experiment in all cases: Glasshouse assay for herbicidal activity (pre- and post-emergence), percentage phytotoxicity
What all share (assay type): in vivo

Test [1] has as its system Echinochloa crus-galli (ECHCG). Conditions: Echinochloa crus-galli. In short, it runs like this: (§1)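 Sow seed in standard soil in pots; apply test herbicide after 1 day (PRE) or about 12 days (POST). Grow on in the glasshouse, watering twice daily, cool-season species at 20/16 °C and warm-season at 24/18 °C. Score visible damage (0–100%) at 20 or 15 DAA respectively.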
Test [2] relates to Avena fatua (AVEFA). The note with it: Avena fatua. An outline of the steps: as §1
The subject of test [3] is Lolium perenne (LOLPE). Conditions: Lolium perenne. In short, it runs like this:
as §1

Test [4] relates to Alopecurus myosuroides (ALOMY). Conditions: Alopecurus myosuroides. In short, it runs like this:
as §1

[5] abbreviates: post-emergence, 360 h, POST-emergence, rate 250 g/ha, visual score 15 DAA (100%=total damage, 0%=no damage), read-out: Post-emergence herbicidal activity (percentage phytotoxicity) ECHCG POST.
The mark [6] stands for this setting: pre-emergence, 480 h, PRE-emergence, rate 250 g/ha, visual score 20 DAA (100%=total damage, 0%=no damage), read-out: Pre-emergence herbicidal activity (percentage phytotoxicity) ECHCG PRE.
Where [7] appears, read: post-emergence, 360 h, POST-emergence, rate 250 g/ha, visual score 15 DAA (100%=total damage, 0%=no damage), read-out: Post-emergence herbicidal activity (percentage phytotoxicity) AVEFA POST.
The mark [8] stands for this setting: pre-emergence, 480 h, PRE-emergence, rate 250 g/ha, visual score 20 DAA (100%=total damage, 0%=no damage), read-out: Pre-emergence herbicidal activity (percentage phytotoxicity) AVEFA PRE.
[9] abbreviates: post-emergence, 360 h, POST-emergence, rate 250 g/ha, visual score 15 DAA (100%=total damage, 0%=no damage), read-out: Post-emergence herbicidal activity (percentage phytotoxicity) LOLPE POST.
Setting [10] is: pre-emergence, 480 h, PRE-emergence, rate 250 g/ha, visual score 20 DAA (100%=total damage, 0%=no damage), read-out: Pre-emergence herbicidal activity (percentage phytotoxicity) LOLPE PRE.
The mark [11] stands for this setting: post-emergence, 360 h, POST-emergence, rate 250 g/ha, visual score 15 DAA (100%=total damage, 0%=no damage), read-out: Post-emergence herbicidal activity (percentage phytotoxicity) ALOMY POST.
Where [12] appears, read: pre-emergence, 480 h, PRE-emergence, rate 250 g/ha, visual score 20 DAA (100%=total damage, 0%=no damage), read-out: Pre-emergence herbicidal activity (percentage phytotoxicity) ALOMY PRE.
Where [13] appears, read: post-emergence, 360 h, 250 g/ha, post-emergence, 15 DAA, visual assessment (100%=total damage, 0%=no damage), read-out: Post-emergence herbicidal activity (percentage phytotoxicity) ECHCG POST.
[14] abbreviates: pre-emergence, 480 h, 250 g/ha, pre-emergence, 20 DAA, visual assessment (100%=total damage, 0%=no damage), read-out: Pre-emergence herbicidal activity (percentage phytotoxicity) ECHCG PRE.
[15] abbreviates: post-emergence, 360 h, 250 g/ha, post-emergence, 15 DAA, visual assessment (100%=total damage, 0%=no damage), read-out: Post-emergence herbicidal activity (percentage phytotoxicity) AVEFA POST.
[16] abbreviates: pre-emergence, 480 h, 250 g/ha, pre-emergence, 20 DAA, visual assessment (100%=total damage, 0%=no damage), read-out: Pre-emergence herbicidal activity (percentage phytotoxicity) AVEFA PRE.
Setting [17] is: post-emergence, 360 h, 250 g/ha, post-emergence, 15 DAA, visual assessment (100%=total damage, 0%=no damage), read-out: Post-emergence herbicidal activity (percentage phytotoxicity) LOLPE POST.
Where [18] appears, read: pre-emergence, 480 h, 250 g/ha, pre-emergence, 20 DAA, visual assessment (100%=total damage, 0%=no damage), read-out: Pre-emergence herbicidal activity (percentage phytotoxicity) LOLPE PRE.
[19] abbreviates: post-emergence, 360 h, 250 g/ha, post-emergence, 15 DAA, visual assessment (100%=total damage, 0%=no damage), read-out: Post-emergence herbicidal activity (percentage phytotoxicity) ALOMY POST.
Where [20] appears, read: pre-emergence, 480 h, 250 g/ha, pre-emergence, 20 DAA, visual assessment (100%=total damage, 0%=no damage), read-out: Pre-emergence herbicidal activity (percentage phytotoxicity) ALOMY PRE.
The mark [21] stands for this setting: post-emergence, 360 h, Rate 250 g/ha, post-emergence, assessed visually 15 DAA, 100%=total damage, 0%=no damage, read-out: Post-emergence herbicidal activity (percentage phytotoxicity) ECHCG POST.
[22] abbreviates: pre-emergence, 480 h, Rate 250 g/ha, pre-emergence, assessed visually 20 DAA, 100%=total damage, 0%=no damage, read-out: Pre-emergence herbicidal activity (percentage phytotoxicity) ECHCG PRE.
[23] abbreviates: post-emergence, 360 h, Rate 250 g/ha, post-emergence, assessed visually 15 DAA, 100%=total damage, 0%=no damage, read-out: Post-emergence herbicidal activity (percentage phytotoxicity) AVEFA POST.
Setting [24] is: pre-emergence, 480 h, Rate 250 g/ha, pre-emergence, assessed visually 20 DAA, 100%=total damage, 0%=no damage, read-out: Pre-emergence herbicidal activity (percentage phytotoxicity) AVEFA PRE.
Setting [25] is: post-emergence, 360 h, Rate 250 g/ha, post-emergence, assessed visually 15 DAA, 100%=total damage, 0%=no damage, read-out: Post-emergence herbicidal activity (percentage phytotoxicity) LOLPE POST.
Where [26] appears, read: pre-emergence, 480 h, Rate 250 g/ha, pre-emergence, assessed visually 20 DAA, 100%=total damage, 0%=no damage, read-out: Pre-emergence herbicidal activity (percentage phytotoxicity) LOLPE PRE.
[27] abbreviates: post-emergence, 360 h, Rate 250 g/ha, post-emergence, assessed visually 15 DAA, 100%=total damage, 0%=no damage, read-out: Post-emergence herbicidal activity (percentage phytotoxicity) ALOMY POST.
The mark [28] stands for this setting: pre-emergence, 480 h, Rate 250 g/ha, pre-emergence, assessed visually 20 DAA, 100%=total damage, 0%=no damage, read-out: Pre-emergence herbicidal activity (percentage phytotoxicity) ALOMY PRE.

On to `CCc1cc(C)cc(C)c1C1C(=O)CC(CC(N)=O)C1=O` (stereo not drawn) [Compound B171], for which the pest or weed control at 250 g/ha in test [1] (setting [5]) stood at 100%; in test [1] (setting [6]), 100%; in test [2] (setting [7]) it was 100%; in test [2] (setting [8]), 100%; in test [3] (setting [9]), 90%; in test [3] (setting [10]), 100%. Besides, the pest or weed control at 250 g/ha in test [4] (setting [11]) and in test [4] (setting [12]) was 100% throughout.
For the compound `Cc1cc(C)c(C2C(=O)CC(CC(=O)NC(C)(C)C#N)C2=O)c(C)c1` (stereo not drawn) [Compound B43], the pest or weed control at 250 g/ha came out at 60% in test [1] (setting [13]); 40% in test [1] (setting [14]); 80% in test [2] (setting [15]); 30% in test [2] (setting [16]); 80% in test [3] (setting [17]); 60% in test [3] (setting [18]). The values for the pest or weed control at 250 g/ha in test [4] (setting [19]) and in test [4] (setting [20]) were 80% and 70%, respectively.
For `CONC(=O)CC1CC(=O)C(c2c(C)cc(C)cc2C)C1=O` (stereo not drawn) [Compound B96], the pest or weed control at 250 g/ha in test [1] (setting [13]) turned out to be 90%; in test [1] (setting [14]), 30%; in test [2] (setting [15]), 60%; in test [2] (setting [16]), 0%; in test [3] (setting [17]) it was 80%; in test [3] (setting [18]), 80%. Besides, the pest or weed control at 250 g/ha in test [4] (setting [19]) is 20%; in test [4] (setting [20]), 0%.
For `Cc1cc(-c2ncc(F)cc2F)cc(C)c1C1C(=O)CC(CC(=O)NC/C=C/Cl)C1=O` (stereo not drawn) [Compound B290], the pest or weed control at 250 g/ha in test [1] (setting [5]), in test [1] (setting [6]), in test [2] (setting [7]), in test [2] (setting [8]), in test [3] (setting [9]) and in test [3] (setting [10]) was 100% each time. The pest or weed control at 250 g/ha in test [4] (setting [11]) and in test [4] (setting [12]) was 100% each time.
On to `Cc1cc(-c2ncc(F)cn2)cc(C)c1C1C(=O)CC(CC(=O)NCc2ccc(C(F)(F)F)nc2)C1=O` (stereo not drawn) [Compound A136], for which the pest or weed control at 250 g/ha in test [1] (setting [21]) stood at 100%; in test [1] (setting [22]), 90%; in test [2] (setting [23]), 100%; in test [2] (setting [24]), 90%; in test [3] (setting [25]), 90%; in test [3] (setting [26]) it was 80%. Also, the pest or weed control at 250 g/ha was 100% in test [4] (setting [27]) and 80% in test [4] (setting [28]).
Regarding `C#CC(C)(C)NC(=O)CC1CC(=O)C(c2c(C)cc(C#CC)cc2C)C1=O` (single isomer, unassigned) [Compound A56], the pest or weed control at 250 g/ha in test [1] (setting [21]) is 100%; in test [1] (setting [22]), 100%; in test [2] (setting [23]), 100%; in test [2] (setting [24]), 90%; in test [3] (setting [25]), 90%; in test [3] (setting [26]) it was 90%. The pest or weed control at 250 g/ha in test [4] (setting [27]) and in test [4] (setting [28]) was 100% each time.
